Measurements: patent US10570108B2, “Substituted benzofuran compounds for the treatment of hepatitis C” (BRISTOL-MYERS SQUIBB COMPANY, priority 2015, dated 2020)

System: HCV replicon
Test: HCV replicon luciferase assay
Type: cell-based
Details: Hepatitis C virus, Huh-7, 72 h
Description: Cell lines. The cell lines used to evaluate compounds consist of a human hepatocyte derived cell line (Huh-7) that constitutively expresses a genotype 1b (Con-1) HCV replicon or a genotype 1b (Con-1) HCV replicon with an asparagine replacing the cysteine at amino acid 316, or a genotype 2a (JFH-1) replicon, containing a Renilla luciferase reporter gene. These cells were maintained in Dulbecco's modified Eagle medium (DMEM) containing 10% FBS, 100 U/mL penicillin/streptomycin and 1.0 mg/mL G418.
HCV replicon luciferase assay. To evaluate compound efficacy, titrated compounds were transferred to sterile 384-well tissue culture treated plates, and the plates were seeded with HCV replicon cells (50 μL at a density of 2.4×10^3 cells/well) in DMEM containing 4% FBS (final DMSO concentration at 0.5%). After 3 days incubation at 37° C., cells were analyzed for Renilla Luciferase activity using the EnduRen substrate (Promega cat #E6485) according to the manufacturer's directions. Briefly, the EnduRen substrate was diluted in DMEM and then added to the plates to a final concentration of 7.5 μM. The plates were incubated for at least 1 h at 37° C. then read on a Viewlux Imager (PerkinElmer) using a luminescence program. The 50% effective concentration (EC50) was calculated using the four-parameter logistic formula noted above.

Row | SMILES | EC50 [nM]
1 | CCN(CC)c1cc2oc(-c3ccc(F)cc3)c(C(=O)NC)c2cc1-c1cccc(C(=O)N[C@H]2CCCC[C@H]2C(=O)O)c1 [Compound 1047] | < 100
2 | CC[C@H](COCc1ccccc1)NC(=O)c1cccc(-c2cc3c(C(=O)NC)c(-c4ccc(F)cc4)oc3cc2N(CC)CC)c1 [Compound 1024] | 100 to 1000
3 | CCN(CC)c1cc2oc(-c3ccc(F)cc3)c(C(=O)NC)c2cc1-c1cccc(C(=O)N[C@H]2C(O)O[C@H](CO)[C@@H](O)[C@@H]2O)c1 (some centres unmarked) [Compound 1001] | 2820
4 | CCN(CC)c1cc2oc(-c3ccc(F)cc3)c(C(=O)NC)c2cc1-c1cccc(C(=O)NC2CCOCC2)c1 [Compound 1028] | < 100
5 | C#CC1(NC(=O)c2cccc(-c3cc4c(C(=O)NC)c(-c5ccc(F)cc5)oc4cc3NCC)c2)CCCCC1 [Compound 4003] | < 100
6 | CCN(CC)c1cc2oc(-c3ccc(F)cc3)c(C(=O)NC)c2cc1-c1cccc(C(=O)NCC2(COc3ccccc3)CC2)c1 [Compound 1021] | 172
7 | CCN(CC)c1cc2oc(-c3ccc(F)cc3)c(C(=O)NC)c2cc1-c1cccc(C(=O)N[C@H](CC(=O)N[C@H](CC(=O)O)CC(C)C)CC(C)C)c1 [Compound 1044] | 100 to 1000
8 | CNC(=O)c1c(-c2ccc(F)cc2)oc2cc(N)c(-c3cccc(C(=O)NC(CO)(CO)CO)c3)cc12 [Compound 3003] | > 1000
9 | CCOP(=O)(CCCNC(=O)c1cccc(-c2cc3c(C(=O)NC)c(-c4ccc(F)cc4)oc3cc2N(CC)CC)c1)OCC [Compound 1015] | < 100
10 | CCNc1cc2oc(-c3ccc(F)cc3)c(C(=O)NC)c2cc1-c1cccc(C(=O)NCC(C)(C)C#N)c1 [Compound 4002] | < 100
11 | CCN(CC)c1cc2oc(-c3ccc(F)cc3)c(C(=O)NC)c2cc1-c1cccc(C(=O)NCCN2CCNC2=O)c1 [Compound 1014] | < 100
12 | CCOC(=O)[C@@H]1CCCC[C@@H]1NC(=O)c1cccc(-c2cc3c(C(=O)NC)c(-c4ccc(F)cc4)oc3cc2N(CC)CC)c1 [Compound 1004] | < 100
13 | C#CC1(NC(=O)c2cccc(-c3cc4c(C(=O)NC)c(-c5ccc(F)cc5)oc4cc3N(CC)S(C)(=O)=O)c2)CCCCC1 [Compound 5001] | < 100
14 | CCN(CC)c1cc2oc(-c3ccc(F)cc3)c(C(=O)NC)c2cc1-c1cccc(C(=O)N[C@H]2CCC[C@H]2C(=O)N[C@H]2CCC[C@H]2C(=O)O)c1 [Compound 1042] | 100 to 1000
15 | CCN(CC)c1cc2oc(-c3ccc(F)cc3)c(C(=O)NC)c2cc1-c1cccc(C(=O)NC2CCNC2=O)c1 (centres unmarked) [Compound 1026] | 11.1
16 | CCN(CC)c1cc2oc(-c3ccc(F)cc3)c(C(=O)NC)c2cc1-c1cccc(C(=O)NCC2(C#N)CC2)c1 [Compound 1019] | < 100
17 | CNC(=O)c1c(-c2ccc(F)cc2)oc2cc([N+](=O)[O-])c(-c3cccc(C(=O)NC(CO)(CO)CO)c3)cc12 [Compound 3001] | 2540
18 | CCN(c1cc2oc(-c3ccc(F)cc3)c(C(=O)NC)c2cc1-c1cccc(C(=O)NC2(C#N)CCN(C(=O)OC(C)(C)C)CC2)c1)S(C)(=O)=O [Compound 5005] | < 100
19 | CCN(CC)c1cc2oc(-c3ccc(F)cc3)c(C(=O)NC)c2cc1-c1cccc(C(=O)NCC2(COC)CC2)c1 [Compound 1020] | < 100

Row | SMILES | EC50 [nM]
20 | CCN(CC)c1cc2oc(-c3ccc(F)cc3)c(C(=O)NC)c2cc1-c1cccc(C(=O)N[C@H]2C3CCC(C3)[C@H]2C(=O)O)c1 (some centres unmarked) [Compound 1038] | 100 to 1000
21 | CCN(CC)c1cc2oc(-c3ccc(F)cc3)c(C(=O)NC)c2cc1-c1cccc(C(=O)NCC(=N)N)c1 [Compound 1017] | 100 to 1000
22 | CCN(CC)c1cc2oc(-c3ccc(F)cc3)c(C(=O)NC)c2cc1-c1cccc(C(=O)NC2CNC(=O)C2)c1 (centres unmarked) [Compound 1027] | < 100
23 | CCN(CC)c1cc2oc(-c3ccc(F)cc3)c(C(=O)NC)c2cc1-c1cccc(C(=O)N[C@H](CC(=O)O)CC(C)C)c1 [Compound 1043] | < 100
24 | CCN(CC)c1cc2oc(-c3ccc(F)cc3)c(C(=O)NC)c2cc1-c1cccc(C(=O)NC[C@H]2CCCC[C@H]2O)c1 [Compound 1003] | < 100
25 | CCN(CC)c1cc2oc(-c3ccc(F)cc3)c(C(=O)NC)c2cc1-c1cccc(C(=O)NC2(CC(=O)O)CCCCC2)c1 [Compound 2002] | < 100
26 | CCN(CC)c1cc2oc(-c3ccc(F)cc3)c(C(=O)NC)c2cc1-c1cccc(C(=O)NCCCn2cncn2)c1 [Compound 1013] | < 100
27 | CCN(CC)c1cc2oc(-c3ccc(F)cc3)c(C(=O)NC)c2cc1-c1cccc(C(=O)NCCCn2ccnc2)c1 [Compound 1012] | < 100
28 | CCN(CC)c1cc2oc(-c3ccc(F)cc3)c(C(=O)NC)c2cc1-c1cccc(C(=O)NCCCS(=O)(=O)O)c1 [Compound 1039] | > 1000
29 | CCNc1cc2oc(-c3ccc(F)cc3)c(C(=O)NC)c2cc1-c1cccc(C(=O)NC2(C#N)CCN(Cc3ccccc3)CC2)c1 [Compound 4004] | < 100
30 | CCN(CC)c1cc2oc(-c3ccc(F)cc3)c(C(=O)NC)c2cc1-c1cccc(C(=O)N[C@]2(C)[C@H](C(=O)OC)C[C@@H]3C[C@H]2C3(C)C)c1 [Compound 1032] | < 100
31 | CCN(CC)c1cc2oc(-c3ccc(F)cc3)c(C(=O)NC)c2cc1-c1cccc(C(=O)NC23CC4(C)CC(C)(CC(O)(C4)C2)C3)c1 [Compound 1035] | < 100
32 | CCN(CC)c1cc2oc(-c3ccc(F)cc3)c(C(=O)NC)c2cc1-c1cccc(C(=O)N[C@@H]2C3CCC(C3)[C@@H]2CO)c1 (some centres unmarked) [Compound 1030] | < 100
33 | CCN(CC)c1cc2oc(-c3ccc(F)cc3)c(C(=O)NC)c2cc1-c1cccc(C(=O)N[C@H]2CC=CC[C@H]2CO)c1 [Compound 1009] | < 100
34 | CCN(CC)c1cc2oc(-c3ccc(F)cc3)c(C(=O)NC)c2cc1-c1cccc(C(=O)NC2(CC(=O)O)CCCC2)c1 [Compound 1046] | 22.2
35 | CCN(CC)c1cc2oc(-c3ccc(F)cc3)c(C(=O)NC)c2cc1-c1cccc(C(=O)N[C@@H]2CCCC[C@@H]2C(=O)O)c1 [Compound 2001] | 100 to 1000
36 | CCN(CC)c1cc2oc(-c3ccc(F)cc3)c(C(=O)NC)c2cc1-c1cccc(C(=O)N[C@H]2CCC[C@H]2C(=O)O)c1 [Compound 1041] | 135
37 | CCN(CC)c1cc2oc(-c3ccc(F)cc3)c(C(=O)NC)c2cc1-c1cccc(C(=O)NCc2ccccc2C(=O)OC)c1 [Compound 1010] | < 100
38 | CCN(CC)c1cc2oc(-c3ccc(F)cc3)c(C(=O)NC)c2cc1-c1cccc(C(=O)NC2CCOC2)c1 (centres unmarked) [Compound 1029] | < 100

Row | SMILES | EC50 [nM]
39 | CCN(CC)c1cc2oc(-c3ccc(F)cc3)c(C(=O)NC)c2cc1-c1cccc(C(=O)NCC2(C)COC2)c1 [Compound 1036] | 26.6
40 | CCN(c1cc2oc(-c3ccc(F)cc3)c(C(=O)NC)c2cc1-c1cccc(C(=O)N[C@H]2CCNC2=O)c1)S(C)(=O)=O [Compound 5004] | 100 to 1000
41 | CCOC(=O)[C@H]1CCCC[C@@H]1NC(=O)c1cccc(-c2cc3c(C(=O)NC)c(-c4ccc(F)cc4)oc3cc2N(CC)CC)c1 [Compound 1007] | < 100
42 | CCN(CC)c1cc2oc(-c3ccc(F)cc3)c(C(=O)NC)c2cc1-c1cccc(C(=O)NCCOCc2ccccc2)c1 [Compound 1025] | < 100
43 | CCN(c1cc2oc(-c3ccc(F)cc3)c(C(=O)NC)c2cc1-c1cccc(C(=O)NC2(C#N)CCOCC2)c1)S(C)(=O)=O [Compound 5007] | 4.2
44 | CCN(CC)c1cc2oc(-c3ccc(F)cc3)c(C(=O)NC)c2cc1-c1cccc(C(=O)NCCNS(=O)(=O)c2ccc(C)cc2)c1 [Compound 1016] | 32.5
45 | CCOC(=O)CC1(NC(=O)c2cccc(-c3cc4c(C(=O)NC)c(-c5ccc(F)cc5)oc4cc3N(CC)CC)c2)CCCCC1 [Compound 1008] | < 100
46 | CCN(CC)c1cc2oc(-c3ccc(F)cc3)c(C(=O)NC)c2cc1-c1cccc(C(=O)NCC2(Cn3cccn3)CC2)c1 [Compound 1011] | 26.1
47 | CCN(CC)c1cc2oc(-c3ccc(F)cc3)c(C(=O)NC)c2cc1-c1cccc(C(=O)NCCOc2ccccc2)c1 [Compound 1023] | < 100
48 | CCN(c1cc2oc(-c3ccc(F)cc3)c(C(=O)NC)c2cc1-c1cccc(C(=O)N[C@@H]2CCNC2=O)c1)S(C)(=O)=O [Compound 5003] | 100 to 1000
49 | CCN(CC)c1cc2oc(-c3ccc(F)cc3)c(C(=O)NC)c2cc1-c1cccc(C(=O)N[C@@]2(C)[C@@H](C(=O)OC)C[C@H]3C[C@@H]2C3(C)C)c1 [Compound 1031] | 116
50 | CCN(CC)c1cc2oc(-c3ccc(F)cc3)c(C(=O)NC)c2cc1-c1cccc(C(=O)N[C@@H]2CCCC[C@H]2C(=O)N[C@@H]2CCCC[C@H]2C(=O)O)c1 [Compound 1045] | > 1000
51 | CCN(CC)c1cc2oc(-c3ccc(F)cc3)c(C(=O)NC)c2cc1-c1cccc(C(=O)NC2CC(O)C2)c1 (centres unmarked) [Compound 1005] | < 100
52 | CCN(CC)c1cc2oc(-c3ccc(F)cc3)c(C(=O)NC)c2cc1-c1cccc(C(=O)NCC2(c3ccccc3)CC2)c1 [Compound 1018] | 100 to 1000
53 | CCN(CC)c1cc2oc(-c3ccc(F)cc3)c(C(=O)NC)c2cc1-c1cccc(C(=O)NCCCOc2ccccc2)c1 [Compound 1022] | < 100
54 | CCN(CC)c1cc2oc(-c3ccc(F)cc3)c(C(=O)NC)c2cc1-c1cccc(C(=O)NC2CCC(O)C2)c1 (centres unmarked) [Compound 1006] | 44.5
55 | CCNc1cc2oc(-c3ccc(F)cc3)c(C(=O)NC)c2cc1-c1cccc(C(=O)NC(CO)(CO)CO)c1 [Compound 3004] | < 100
56 | CNC(=O)c1c(-c2ccc(F)cc2)oc2cc(N(CCF)S(C)(=O)=O)c(-c3cccc(C(=O)NCC4CCCC4NC(=O)OC(C)(C)C)c3)cc12 (centres unmarked) [Compound 7001] | < 100
